Measurements reported in ChEMBL document CHEMBL3045583, “Increasing antitumor activity in vivo by enhancing acridine dimer solubility with salt preparations” (Med Chem Res, 2010).
The source made the active and inactive calls. No cut-off for these calls is given here.

Tests used:
[1] = Solubility of compound in methanol at 1 mg/ml; format: physicochemical
[2] = Solubility of compound in saline at 1 mg/ml; format: physicochemical; details: buffer
[3] = Solubility of compound in water at 0.8 mg/ml; format: physicochemical; details: buffer
[4] = Solubility of compound in water at 8 mg/ml; format: physicochemical; details: buffer
[5] = Solubility of compound in methanol at 3.3 mg/ml; format: physicochemical
[6] = Solubility of compound in saline at 0.4 mg/ml; format: physicochemical; details: buffer
[7] = Solubility of compound in water at 1 mg/ml; format: physicochemical; details: buffer
COLO 205 [8] = experiment: Antitumor activity against Homo sapiens (human) COLO205 xenografted in SCID mouse assessed as tumor growth at 1 to 5 mg/kg, iv twice daily for 3 days for 2 administered as solution in 2.5% cremophor; format: functional, organism-based
COLO 205 [9] = experiment: Antitumor activity against Homo sapiens (human) COLO205 xenografted in SCID mouse assessed as tumor growth at 10 to 20 mg/kg, iv qd for 5 days for 2 administered as solution in 1% carboxymethy-cellulose; format: functional, organism-based
COLO 205 [10] = experiment: Antitumor activity against Homo sapiens (human) COLO205 xenografted in SCID mouse assessed as inhibition of tumor growth at 2.5 to 10 mg/kg, iv twice daily for 3 days for 2 administered as solution in water; format: functional, organism-based
COLO 205 [11] = experiment: Antitumor activity against Homo sapiens (human) COLO205 xenografted in SCID mouse assessed as tumor growth at 5 to 20 mg/kg, ip 4 times daily for 3 days administered as solution in 1% carboxymethy-cellulose; format: functional, organism-based
COLO 205 [12] = experiment: Antitumor activity against Homo sapiens (human) COLO205 xenografted in SCID mouse assessed as inhibition of tumor growth at 7.5 to 10 mg/kg, iv twice daily for 3 days for 2 administered as solution in 2.5% cremophor; format: functional, organism-based

## COc1ccc2nc3cc(Cl)ccc3c(NCCCNCCCNc3c4ccc(Cl)cc4nc4ccc(OC)cc34)c2c1.CS(=O)(=O)O
[1]
  solubility: soluble
[2]
  solubility: Insoluble
[3]
  solubility: Insoluble

## CC(=O)O.CC(=O)O.CC(=O)O.COc1ccc2nc3cc(Cl)ccc3c(NCCCNCCCNc3c4ccc(Cl)cc4nc4ccc(OC)cc34)c2c1
[1]
  solubility: soluble
[2]
  solubility: Insoluble
[4]
  solubility: soluble

## COc1ccc2nc3cc(Cl)ccc3c(NCCCNCCCNc3c4ccc(Cl)cc4nc4ccc(OC)cc34)c2c1.O=C(O)C(F)(F)F.O=C(O)C(F)(F)F.O=C(O)C(F)(F)F
[5]
  solubility: soluble
[6]
  solubility: soluble
[7]
  solubility: Insoluble

## COc1ccc2nc3cc(Cl)ccc3c(NCCCNCCCNc3c4ccc(Cl)cc4nc4ccc(OC)cc34)c2c1 [listing 1 of 2 here]
COLO 205 [8]
  Activity: inactive
COLO 205 [9]
  Activity: inactive
COLO 205 [10]
  TGI: Active
COLO 205 [11]
  Activity: inactive
COLO 205 [12]
  TGI: Active

## COc1ccc2nc3cc(Cl)ccc3c(NCCCNCCCNc3c4ccc(Cl)cc4nc4ccc(OC)cc34)c2c1 [listing 2 of 2 here]
[1]
  solubility: soluble
[2]
  solubility: Insoluble
[7]
  solubility: Insoluble
